Assay [1] deals with T1, Thromboxane A2 receptor (Homo sapiens, UniProt P21731).
T1 sequence (P21731 whole entry): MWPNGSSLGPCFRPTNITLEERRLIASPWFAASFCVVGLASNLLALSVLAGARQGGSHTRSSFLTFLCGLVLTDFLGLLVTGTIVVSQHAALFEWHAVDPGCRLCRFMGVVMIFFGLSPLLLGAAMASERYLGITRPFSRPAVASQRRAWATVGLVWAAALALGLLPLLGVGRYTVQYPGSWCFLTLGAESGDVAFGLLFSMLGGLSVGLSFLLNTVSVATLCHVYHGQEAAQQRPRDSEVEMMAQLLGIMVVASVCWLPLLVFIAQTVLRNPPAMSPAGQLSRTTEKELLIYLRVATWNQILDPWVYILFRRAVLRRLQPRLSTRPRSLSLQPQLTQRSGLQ
It is filed as functional, cell-based.

For assay [2], the target named is T1, Thromboxane A2 receptor. It counts as functional.
Assay [3] deals with 5-hydroxytryptamine receptor 2B (Homo sapiens, UniProt P41595).
Assay [4] has as its target T2, Peroxisome proliferator-activated receptor alpha (Homo sapiens, UniProt Q07869).
T2 sequence (Q07869 whole entry): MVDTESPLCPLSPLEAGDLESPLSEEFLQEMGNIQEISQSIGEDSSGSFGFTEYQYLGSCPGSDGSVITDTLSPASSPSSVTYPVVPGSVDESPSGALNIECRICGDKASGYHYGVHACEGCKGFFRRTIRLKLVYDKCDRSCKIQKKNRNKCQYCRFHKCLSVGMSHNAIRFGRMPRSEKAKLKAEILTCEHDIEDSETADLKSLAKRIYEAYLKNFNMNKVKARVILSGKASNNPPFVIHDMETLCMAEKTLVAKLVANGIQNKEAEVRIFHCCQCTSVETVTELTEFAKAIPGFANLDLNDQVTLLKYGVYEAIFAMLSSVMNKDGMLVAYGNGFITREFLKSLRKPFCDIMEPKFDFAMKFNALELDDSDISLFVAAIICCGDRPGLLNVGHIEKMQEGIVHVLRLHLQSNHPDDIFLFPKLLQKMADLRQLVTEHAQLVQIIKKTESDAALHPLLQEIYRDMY
It is filed as functional.

Assay [5] concerns the target T3, Retinoic acid receptor alpha (Homo sapiens, UniProt P10276).
T3 sequence (P10276 whole entry): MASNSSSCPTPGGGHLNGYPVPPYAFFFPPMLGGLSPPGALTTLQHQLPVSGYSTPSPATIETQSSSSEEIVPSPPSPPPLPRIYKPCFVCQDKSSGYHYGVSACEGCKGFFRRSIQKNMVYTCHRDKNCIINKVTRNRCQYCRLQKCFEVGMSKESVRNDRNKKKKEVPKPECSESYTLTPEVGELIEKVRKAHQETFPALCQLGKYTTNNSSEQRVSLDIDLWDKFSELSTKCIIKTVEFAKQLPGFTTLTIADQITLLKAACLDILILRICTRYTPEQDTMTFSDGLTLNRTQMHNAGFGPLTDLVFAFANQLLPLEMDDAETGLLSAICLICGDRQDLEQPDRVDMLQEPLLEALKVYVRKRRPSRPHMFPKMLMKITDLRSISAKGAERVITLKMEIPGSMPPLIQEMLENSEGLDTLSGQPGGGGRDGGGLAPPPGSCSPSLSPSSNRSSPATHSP
It counts as functional, cell-based.

Assay [6] deals with T2, Peroxisome proliferator-activated receptor alpha. It is filed as functional. The source holds these as a separate data set.
For assay [7], the target named is T4, Bile acid receptor (Homo sapiens, UniProt Q96RI1).
T4 sequence (Q96RI1 whole entry): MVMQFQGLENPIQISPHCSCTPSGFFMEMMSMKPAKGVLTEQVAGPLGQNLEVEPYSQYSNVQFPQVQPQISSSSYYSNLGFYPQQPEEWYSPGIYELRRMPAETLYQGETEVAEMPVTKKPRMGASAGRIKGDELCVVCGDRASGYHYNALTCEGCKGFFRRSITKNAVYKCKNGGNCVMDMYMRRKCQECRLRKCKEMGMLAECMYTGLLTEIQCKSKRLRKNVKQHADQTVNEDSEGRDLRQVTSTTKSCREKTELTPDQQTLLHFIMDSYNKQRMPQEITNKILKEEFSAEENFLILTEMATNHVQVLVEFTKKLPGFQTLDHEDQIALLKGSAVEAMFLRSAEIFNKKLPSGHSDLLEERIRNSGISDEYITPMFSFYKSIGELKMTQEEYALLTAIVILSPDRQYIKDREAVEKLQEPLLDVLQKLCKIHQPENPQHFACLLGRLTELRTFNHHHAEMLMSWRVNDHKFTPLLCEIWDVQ
It counts as functional.

Assay [8] has as its target T3, Retinoic acid receptor alpha. It counts as functional, cell-based. The source holds these as a separate data set.
Assay [9] addresses T5, Retinoic acid receptor gamma (Homo sapiens, UniProt P13631).
T5 sequence (P13631 whole entry): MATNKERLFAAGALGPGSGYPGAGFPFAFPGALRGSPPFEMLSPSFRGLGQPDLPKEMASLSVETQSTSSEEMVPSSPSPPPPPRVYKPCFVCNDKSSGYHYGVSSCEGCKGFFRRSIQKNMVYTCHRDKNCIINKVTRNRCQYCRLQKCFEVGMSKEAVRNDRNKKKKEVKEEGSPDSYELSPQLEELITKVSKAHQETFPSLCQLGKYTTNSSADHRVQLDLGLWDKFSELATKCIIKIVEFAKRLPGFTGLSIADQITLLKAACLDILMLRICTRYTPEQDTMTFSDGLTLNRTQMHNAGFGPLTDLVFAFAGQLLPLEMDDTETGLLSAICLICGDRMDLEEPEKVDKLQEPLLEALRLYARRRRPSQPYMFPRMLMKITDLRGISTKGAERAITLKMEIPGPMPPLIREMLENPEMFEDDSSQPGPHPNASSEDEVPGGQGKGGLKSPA
It is filed as functional, cell-based.

Assay [10] addresses T4, Bile acid receptor. It is filed as functional. This is another data set of the same source.

The values below come from ChEMBL document CHEMBL5291721, “A preclinical secondary pharmacology resource illuminates target-adverse drug reaction associations of marketed drugs” (Nat Commun, 2023).

Usually AC50 stands for the concentration at which the activity in the assay is half-maximal. A high value points to weaker potency.
Note: assay procedure not described here.

Sequence of 5-hydroxytryptamine receptor 2B (P41595 whole entry): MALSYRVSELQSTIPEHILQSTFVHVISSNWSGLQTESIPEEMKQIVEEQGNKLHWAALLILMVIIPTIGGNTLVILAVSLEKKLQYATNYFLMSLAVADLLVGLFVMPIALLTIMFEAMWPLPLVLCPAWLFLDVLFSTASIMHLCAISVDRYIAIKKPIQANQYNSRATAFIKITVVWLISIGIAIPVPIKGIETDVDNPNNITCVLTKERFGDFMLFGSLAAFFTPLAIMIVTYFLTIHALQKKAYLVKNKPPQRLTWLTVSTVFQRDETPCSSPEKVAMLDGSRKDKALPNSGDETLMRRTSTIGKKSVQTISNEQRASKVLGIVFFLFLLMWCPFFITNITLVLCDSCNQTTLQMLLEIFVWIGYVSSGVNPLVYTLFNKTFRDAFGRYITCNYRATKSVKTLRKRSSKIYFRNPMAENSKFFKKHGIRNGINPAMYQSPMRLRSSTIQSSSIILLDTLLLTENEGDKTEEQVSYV

With `N=C(N)NC(=O)Cc1c(Cl)cccc1Cl` [GUANFACINE], the figures for the AC50 (at Thromboxane A2 receptor [1]; at Thromboxane A2 receptor [2]; in [3]) were greater than 30 µM, greater than 30 µM and 1010 nM, respectively.

As to `CC(=O)N1CCN(c2ccc(OCC3COC(Cn4ccnc4)(c4ccc(Cl)cc4Cl)O3)cc2)CC1` (stereo not given) [KETOCONAZOLE], the AC50 was greater than 30 µM in assay [4]; greater than 30 µM in assay [5]; greater than 30 µM in [6]; 15 µM at Bile acid receptor [7]; greater than 30 µM in assay [8]; greater than 30 µM in assay [9]. In addition, the AC50 on Bile acid receptor [10] is greater than 30 µM.
